Assays:
p21 = experiment: Western blotting of p21 in primary rat hepatocytes; assay type: cell-based
Text: Male outbred Sprague-Dawley rats (200-300 g, Iffa Credo, Brussels, Belgium) were kept under controlled environmental conditions (12-hr light-dark cycle) and fed a standard diet (Animafabo A04, water ad libitum). Hepatocytes were isolated by a two-step collagenase perfusion as described (De Smet et al. In ‘Methods in Molecular Biology, Vol. 107: Cytochrome P450 Protocols’, Philips I R and Shephard E A, eds., pp 295-301, Humana Press, Totowa, 1998). Cell liability was >90% as determined by trypan blue exclusion. Cells (0.4×10^5 cells/cm^2) were plated in MEM/M199 (3:1), containing BSA (1 mg/ml), bovine insulin (10 μg/ml), L-glutamine (2 mM), FBS (10% v/v) and antibiotics (7.3 IU/ml benzyl penicillin, 50 μg/ml streptomycin sulphate, 50 μg/ml kanamycin monosulphstep and 10 μg/ml sodium ampicillin). Four hours after plating, serum-containing medium was removed and fresh serum-free medium was added to the cultures. Culture medium was refreshed daily. […]
Total cell extracts were prepared as described previously (Papeleu et al. J Hepatol 39: 374-382, 2003) and proteins (25 or 50 μg per lane) were separated electrophoretically by SDS-PAGE and electroblotted onto nitrocellulose membranes (Amersham Pharmacia Biotech, Buckinghamshire, UK). […] Proteins were detected using the ECL detection system (Amersham Pharmacia Biotech, Buckinghamshire, UK) according to the manufacturer's recommendations.

primary rat hepatocytes = experiment: Albumin secretion (ELISA) by primary rat hepatocyte cultures; assay type: cell-based
Protocol: Medium samples were collected at 72 hours of culture and analyzed for their albumin content by an enzyme-linked immunosorbent assay (ELISA) as described (Dunn et al. Biotechnol Prog 7: 237-245, 1991) Cell morphology was analyzed by light microscopy (×100). Pictures were taken using an Optiphot Nikon Phase Contrast microscope (Cetec, Brussels, Belgium).
Medium samples were collected at 72 hours of culture and analyzed for their albumin content by an enzyme-linked immunosorbent assay (ELISA) as described (Dunn et al. Biotechnol Prog 7: 237-245, 1991).

[1] = Biotransformation by human liver microsomes; assay type: in vitro ADME; settings: 140 μM TSA, 150 min
Protocol: Human liver specimens (n=3) were acquired from organ donors at the Academic Hospital of the VUB in accordance with the regulations of the local Medical Ethical Committee and immediately frozen in liquid nitrogen. While human liver microsomes were prepared from frozen liver tissue, rat livers (n=3) were freshly isolated for immediate microsome preparation. Microsomal 7-ethoxyresorufin-O-deethylase (EROD) [31]was used as a marker enzyme to evaluate the microsomal biotransformation activity before and after storage. Incubations were carried out in a 100 mM sodium potassium phosphate buffer pH 7.4 in the presence of a NADPH-generating system (0.5 mM NADP^+, 10 mM glucose 6-phosphate, 2 U/ml glucose 6-phosphate dehydrogenase and 0.6 mM MgCl2). Microsomes (0.0-2.0 mg microsomal protein/ml) were incubated with 140 μM substrate at 37° C. for 150 min. Boiled microsomes ([…]) served as a control. Biotransformation reactions were initiated by addition of substrate and, at selected time intervals, terminated by dilution with ice-cold acetonitrile (1:2.5).
After centrifugation (2000 g, 45 min, 4° C.) of the diluted microsomal samples, the clear supernatant was injected onto a HPLC column. Samples from incubations with hepatocytes were thawed on ice and centrifugated (120 g, 2 min). […]

[2] = system: freshly isolated rat hepatocytes; experiment: Biotransformation in suspensions of freshly isolated rat hepatocytes; assay type: in vitro ADME
Protocol: Male outbred Sprague Dawley rats (Iffa Credo, Brussels, Belgium) weighing 200-300 g were used. The animals were kept under controlled environmental conditions (12 h light-dark cycle) and had free access to food (Animalabo A 04) and water. After intraperitoneal injection of Nembutal® (0.1 ml/kg body weight), hepatocytes were isolated as described by De Smet et al.. Cell integrity was evaluated by trypan blue exclusion, and was 88±3% (n=20). 5, 25 and 50 μM of both compounds were incubated with 2×10^6 hepatocytes/ml (final volume 3 ml) in HEPES buffer (pH 7.65, 37° C.) up to 6 h. Control samples were obtained by boiling the hepatocyte suspension for 2 min prior to the addition of substrate; cell-free controls contained the substrate in the incubation buffer without hepatocytes. At selected time intervals, 1.0 ml aliquots were submersed in liquid nitrogen to stop the biotransformation reaction.
After centrifugation (2000 g, 45 min, 4° C.) of the diluted microsomal samples, the clear supernatant was injected onto a HPLC column. Samples from incubations with hepatocytes were thawed on ice and centrifugated (120 g, 2 min). The supernatants (extracellular) were subjected to solid phase extraction (Waters Oasis™ HLB cartridges, Waters Corporation, Milford, Mass., USA), while cell pellets (intracellular) were ultrasonicated in 1 ml methanol and centrifugated (2000 g, 30 min, 4° C.). Separations ([…]) were performed by reversed-phase HPLC (Kontron chromatographic system, Milan, Italy) on a Discovery C18, 5 μm, 250×4.6 mm column (Supelco, Sigma-Aldrich, Bornem, Belgium). The mobile phase consisted of component A (0.1% (v/v) aqueous trifluoroacetic acid) and component B (0.1% (v/v) trifluoroacetic acid in acetonitrile). A linear gradient from 3 to 80% (v/v) B was used over 30 min at a flow rate of 1.0 ml/min. […]

rat hepatocytes = experiment: LDH index (membrane damage) in rat hepatocyte suspensions; assay type: cell-based; settings: concentrations up to 100 μM; 6 h

## CC(C=CC(=O)NO)=CC(C)C(=O)c1ccc(N(C)C)cc1 (centres unmarked) [TSA]
p21; 1 μM TSA during liver perfusion and culture, 72 hours
  p21 accumulation: complete absence of p21 accumulation
Primary rat hepatocytes; 1 μM TSA in the collagenase perfusion solution
  secretion of albumin versus cells isolated in absence of TSA: significantly higher secretion of albumin
[1]
  biotransformation in microsome suspensions: slow and incomplete biotransformation
[2]; 50 μM, 2×10^6 hepatocytes/ml
  time to complete metabolism / full degradation: ≤ 40 min
Rat hepatocytes
  cell viability (LDH leakage) of hepatocytes in suspension: did not affect cell viability

## CN(C)c1ccc(C(=O)NCCCCC(=O)NO)cc1 [4-Me2N-BAVAH, 5-(4-dimethylaminobenzoyl)-aminovaleric acid hydroxamide]
p21; 50 μM 4-Me2N-BAVAH + EGF
  p21 expression: completely inhibited
Primary rat hepatocytes; 50 μM 4-Me2N-BAVAH from day 0
  secretion of albumin into the culture medium compared with 1 μM TSA: significantly higher secretion of albumin
Primary rat hepatocytes; 50 μM, 72 hours, versus untreated EGF-stimulated hepatocytes
  increase in albumin secretion: 2.44±0.29 fold
[2]; 50 μM, 2×10^6 hepatocytes/ml
  time to full degradation: more than 3 h
[2]; rat hepatocyte suspensions
  half-life in comparison to TSA: longer half-life
Rat hepatocytes
  cell viability (LDH leakage) of hepatocytes in suspension: not toxic
